Patent US20140018372A1, “CRYSTALLINE FORM OF A INDOLINONE DERIVATIVE AND ITS USE” (BOEHRINGER INGELHEIM INTERNATIONAL GMBH, priority 2012, published 2014)
“Also recorded” adds a separate entry of the source.

What was measured:
[1] = Water sorption isotherms (DVS); format: physicochemical; settings: sorption isotherms at 25° C.
Method: To study the hygroscopical behaviour of this material, sorption isotherms are registered, e.g. on a DVS-1 water sorption monitor from Surface Measurement Systems. Adsorption and desorption isotherms are performed at 25° C. with 10% r.h. step intervals ranging from 10% r.h. up to 90% r.h.

[2] = Solid state chemical stability; format: physicochemical
Method: The crystalline free base form of 3-{3-[1-(4-Dimethylaminomethyl-phenylamino)-1-phenyl-meth-(Z)-ylidene]-2-oxo-2,3-dihydro-1H-indol-6-yl}-propynoic acid ethylamide according to this invention has further added properties, such as e.g. no sensitivity towards heat, humidity and photolysis in solid state (solid state chemical stability, e.g. 3d @ 70° C. and >90% r.h.: <1% decomposition; 3d @ 105° C.: <1.5% decomposition; 24 h under UV-radiation @ 250 W/m^2: <1.5% decomposition).

[3] = test system: phospho-ERK in SK-MEL-28 cells; experiment: Fast Active Cell-Based ELISA (FACE) SK-MEL-28 p-ERK; settings: Homo sapiens, SK-MEL 28 melanoma cells, read-out: EC50 for reduction of phospho-ERK
Text: Fast Active Cell-Based ELISA (FACE) SK-MEL-28 p-ERK:
The supernatant is removed.

[4] = test system: H460 cells; experiment: Polyploidy by DNA content analyses (Cellomics ArrayScan); format: cell-based, human; settings: 7 nM, 42 h exposure
[5] = test system: phospho-histone H3 in NCI-H460 cells; experiment: Analysis of histone H3 phosphorylation in NCI-H460 cells (Cellomics); format: cell-based; settings: Homo sapiens, synchronized H460 NSCLC cells, 1 h treatment, molecular phosphorylation assay, read-out: EC50 for reduction of phospho-histone H3
Text: This CDK1 inhibitor arrests cells in G2. […] The final DMSO concentration was 0.1%.

[6] = test system: tumors derived from melanoma cell line G361^V600V/E; experiment: Human melanoma xenograft G361 in nude mice; format: in vivo; settings: oral qd, Compound A 10 mg/kg, vemurafenib 120 mg/kg; for TGI@d23 [%]: day 23; for CR@d30 [x/7] / PR@d30 [x/7]: day 30
Method: Athymic female BomTac:NMRI-Foxn1^nu mice about six weeks of age are allowed to adjust to ambient conditions for at least five days before they are used for experiments. The animals are housed under standardized conditions in groups of 7-10 in Macrolon® type III cages. Standardized diet (PROVIMI KLIBA) and autoclaved tap water are provided ad libitum. To establish subcutaneous tumors, cells are harvested by trypsinization, centrifuged, washed and resuspended in ice-cold PBS+5% FCS. 100 μL of cell suspension containing, depending on cell type, about 10^6 to 10^7 cells are injected subcutaneously into the right flank of a nude mouse (one site per mouse). Mice are randomly distributed between the treatment and the vehicle control group (12 days after cell injection) when tumors are well established and have reached volumes of 40-120 mm^3
The tumor diameter is measured three times a week (Monday, Wednesday and Friday) with a caliper. The volume of each tumor (in mm^3) is calculated according to the formula “tumor volume=length×diameter^2×π/6”. To monitor side effects of treatment, mice are inspected daily for abnormalities and body weight is determined three times a week (e.g. Monday, Wednesday and Friday). Animals are sacrificed at the end of the study about ten weeks after start of treatment. Animals with necrotic tumors or tumor sizes exceeding 1500 mm^3 are sacrificed early during the studies for ethical reasons.
For a quick overview of possible treatment effects the median of the tumor volume of each treatment group T is related to the median of the tumor volume of control C. Tumor growth inhibition (TGI) from day 1 until day d is calculated as: […]
wherein • C1 and T1 represent the median tumor volumes in the control and treatment groups at start of the experiment at day 1 and • Cd and Td represent the median tumor volumes in the control and treatment groups at end of the experiment at day d.
Mice with tumors derived from melanoma cell line G361^V600V/E are treated orally with the B-Raf inhibitor vemurafenib qd at doses of 120 mg/kg or with 3-{3-[1-(4-Dimethylaminomethyl-phenylamino)-1-phenyl-meth-(Z)-ylidene]-2-oxo-2,3-dihydro-1H-indol-6-yl}-propynoic acid ethylamide (Compound A) qd at doses of 10 mg/kg or with the vehicle only. In addition, mice are treated orally with B-Raf inhibitor vemurafenib qd at doses of 120 mg/kg in combination with Compound A qd at doses of 10 mg/kg.

[7] = Solution state stability; format: physicochemical
Method: In solution state, the compound of formula (I) according to the invention show no or only minor sensitivity towards hydrolysis at pH 2.2-10 (solution state stability, e.g. 0.1M HCl, 8 h @ 37° C.: <1% decomposition; Mc Ilvaine buffer 7.4, 3d @ 60° C.: <1,5% decomposition).

Row | Structure (SMILES) | hygroscopical behaviour [1] | decomposition, solid state ([2]; 24 h under UV-radiation @ 250 W/m^2) [%] | decomposition, solid state ([2]; 3d @ 70° C. and >90% r.h.) [%] | decomposition, solid state ([2]; 3d @ 105° C.) [%] | EC50 [3] [nM] | polyploid cells [4] [%] | EC50 [5] [nM] | mortality [x/7] [6] [x/7] | TGI@d23 [%] [6] [%] | CR@d30 [x/7] [6] [x/7] | PR@d30 [x/7] [6] [x/7] | decomposition, solution state ([7]; 0.1M HCl, 8 h @ 37° C.) [%] | decomposition, solution state ([7]; Mc Ilvaine buffer 7.4, 3d @ 60° C.)
1 | CCNC(=O)C#Cc1ccc2c(c1)NC(=O)/C2=C(\Nc1ccc(CN(C)C)cc1)c1ccccc1 [3-{3-[1-(4-Dimethylaminomethyl-phenylamino)-1-phenyl-meth-(Z)-ylidene]-2-oxo-2,3-dihydro-1H-indol-6-yl}-propynoic acid ethylamide] | not hygroscopic; also recorded: non-hygroscopic | < 1.5 | < 1 | < 1.5 |  |  |  |  |  |  |  |  | 
2 | CCNC(=O)C#Cc1ccc2c(c1)NC(=O)/C2=C(\Nc1ccc(CN(C)C)cc1)c1ccccc1 [Compound A, 3-{3-[1-(4-Dimethylaminomethyl-phenylamino)-1-phenyl-meth-(Z)-ylidene]-2-oxo-2,3-dihydro-1H-indol-6-yl}-propynoic acid ethylamide] |  |  |  |  | 59 | 81 | 44 | 1 | 45 | 0 | 0 | < 1 | < 1,5%
3 | CCCS(=O)(=O)Nc1ccc(F)c(C(=O)c2c[nH]c3ncc(-c4ccc(Cl)cc4)cc23)c1F [vemurafenib, reference compound] |  |  |  |  |  |  |  | 0 | 44 | 0 | 0 |  | 
